Measured values reported in PubChem BioAssay (NCI).
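A five-concentration, 48-hour dose response in 96-well plates underlies each endpoint, interpolated linearly between surrounding concentrations. GI50 marks 50% less growth. TGI: concentration producing complete growth inhibition.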

What was measured:
Assay in all cases: NCI tumour cell line growth inhibition, 48 h
RPMI-8226 leukemia = test system: RPMI-8226 leukemia
A549 NSCLC = test system: A549 NSCLC
COLO 205 colon = test system: COLO 205 colon
SW-620 colon = test system: SW-620 colon
NCI-H23 lung = test system: NCI-H23 lung
SF-539 CNS = test system: SF-539 CNS
PC-3 prostate = test system: PC-3 prostate
NCI/ADR-RES ovarian = test system: NCI/ADR-RES ovarian
MCF7 breast = test system: MCF7 breast
MDA-MB-435 = test system: MDA-MB-435

SMILES	TGI (RPMI-8226 leukemia) [µM]	TGI (A549 NSCLC) [µM]	TGI (COLO 205 colon) [µM]	TGI (SW-620 colon) [µM]	TGI (NCI-H23 lung) [µM]	TGI (SF-539 CNS) [µM]	GI50 (A549 NSCLC) [µM]	GI50 (PC-3 prostate) [µM]	TGI (PC-3 prostate) [µM]	GI50 (NCI/ADR-RES ovarian) [µM]	TGI (NCI/ADR-RES ovarian) [µM]	GI50 (COLO 205 colon) [µM]	GI50 (MCF7 breast) [µM]	TGI (MCF7 breast) [µM]	GI50 (SW-620 colon) [µM]	GI50 (MDA-MB-435) [µM]	TGI (MDA-MB-435) [µM]	GI50 (NCI-H23 lung) [µM]	GI50 (SF-539 CNS) [µM]	GI50 (RPMI-8226 leukemia) [µM]
CCOC(=O)C(C)(C)Oc1ccc2c(C)c(-c3ccc(Cl)cc3)c(=O)oc2c1	> 100	> 100	> 100	> 100	> 100	> 100														
O=C(NCCCCN=c1cccccc1NCCCCNC(=O)OCc1ccccc1)OCc1ccccc1	32.8	74.6		41.7	48.8	31.8														
CC1=C2CCCC2=C/C(=N/Nc2ccc([N+](=O)[O-])cc2[N+](=O)[O-])CC1	> 100	> 100	> 100	> 100	> 100	> 100														
O=[N+]([O-])c1ccc(-n2nnc(C3=NCCN3)c2-c2ccc(Cl)cc2)cc1	> 100	> 100	> 100	> 100	> 100	> 100														
O=c1cc2oc3cc(O)c(O)cc3c(-c3ccccc3O)c-2cc1O		> 100	> 100	> 100	39.1	> 100	28.5	36.1	> 100	8.16	42	36.3	18.4	> 100	32.7	4.57	> 100	3.88	6.16	
O=C(N/N=C1/C(=O)N(c2ccc(Cl)cc2Cl)C(=O)C(=O)C1c1nc2ccccc2o1)c1ccccc1O (centres undefined)	> 100	> 100	> 100	> 100	84.3	97.1														
O=C(Nc1cc(Cl)ccc1Cl)c1cc2cccc(Cl)c2oc1=O	> 100	> 100	> 100	> 100	> 100	> 100														
CC(=O)n1c2c(c(=O)n1-c1ccccc1)S(=O)CCC2 (centres undefined)	27.9	> 100	> 100	> 100	> 100	> 100														
COC1C(O)=C2C(=O)O/C(C)=C/C=C/C=C/C=C\CC(c3ccccc3)NC(=O)\C=C/C=C\C=C\C=C\[C@@]2(C)[C@@H]1O (some centres undefined)	0.0445	0.0445	0.0564	0.139		0.047			0.103					0.0175			0.044			
COc1ccc2oc(-c3cccnc3)cc(=O)c2c1	> 100		> 100		> 100															
COc1ccc(-c2cc(-c3ccccc3)c(C#N)c(=O)n2C2OC(CO)C(O)C(O)C2O)cc1 (centres undefined)	> 100	> 100	> 100	> 100	> 100	> 100														
c1ccc(SC2CCSc3ccccc3C2Sc2ccccc2)cc1 (centres undefined)	> 100	> 100		> 100		> 100														
COc1cccc(/C=N/[N-]C(=O)c2ccncc2)c1[O-].[Cu+2].[OH3+]	> 100	> 100	> 100	> 100	> 100	76.8	53.7					78.4			48.2			34.1	18.2	> 100
O=c1n(-c2ccccc2)c(=O)n2n1C1C=CC2C2C(C1)C2(Cl)Cl (centres undefined)		> 100	> 100	> 100		> 100														
COc1ccncc1C#Cc1cncc(C(=O)Nc2ccc(CN3CCN(C)CC3)c(C(F)(F)F)c2)c1		> 100	64	64.3	> 100	66.6	27.4	27.3	> 100	33.4	> 100	11.2	11.1	94.6	14.6	15	> 100	16.3	5.39	
CCOC(=O)NC(=O)c1cn(CCOC(=O)NCCCCCCNC(=O)OCCn2cc(C(=O)NC(=O)OCC)c(=O)[nH]c2=O)c(=O)[nH]c1=O	> 100	> 100	> 100	> 100																
COC(=O)[C@]1(C)CCCC2(C)C1CC[C@H]1C=C(C)[C@H]3CCC12C3 (some centres undefined)	> 100	> 100	> 100	> 100	> 100	> 100														
CC(=O)O[C@H]1CCC2[C@@H]3CCC4=C(O)c5nocc5C[C@]4(C)C3CC[C@@]21C (some centres undefined)	> 100	> 100	> 100	> 100	> 100	> 100														
O=C(c1ccc(Cl)cc1)c1cnc(Nc2ccccc2Cl)s1	> 100	60.3	> 100	> 100	53.7	55.3			55.5					86.7			> 100			
CCOc1ccc2nc(S/C(=C/C=C(C#N)C#N)c3ccc(C)cc3)sc2c1		> 100	> 100	35.8	97.3	57.2	46.7	33.9	> 100	24	50.7	25.8	17.8	79.6	5.35	20.7	59.4	35.6	26	
CCOc1ccc(N2C(=O)/C(=C/c3ccc(N(CCC#N)CCC#N)cc3)N=C2c2cc([N+](=O)[O-])ccc2Cl)cc1	> 100	> 100	44.1	55.9	> 100	> 100														
Cc1ccc(NC(=O)C2C(=O)N(c3ccc(C)c(C)c3)C(=O)C2N=N)cc1C (centres undefined)		> 100	> 100	> 100	> 100	> 100														
O=C1[C@@H]2C3c4ccccc4C([C@@H]2C(=O)N1c1ccccc1)S3(=O)=O	> 100		> 100	> 100	> 100	> 100														
O=C(CSc1nnc(-c2ccc(N=Cc3ccc(Cl)cc3)cc2)o1)Nc1ccc(Cl)cc1	> 100	> 100	> 100	> 100	> 100															
O=c1[nH]cc(COCCO)c(=O)[nH]1	> 100	> 100	> 100	> 100	> 100	> 100														
